ChEMBL document CHEMBL3885881, “DrugMatrix”

Organism: Rattus norvegicus
Test: DrugMatrix - Regimen: Daily Repeat
Format: toxicity, organism-based, Sprague-Dawley
Set-up: regimen Daily Repeat, gender Male, age 6-8 weeks
Details: in vivo, po, route oral GAVAGE, vehicle 100 % SALINE; for ABSOLUTE BASOPHIL / ABSOLUTE EOSINOPHIL / ABSOLUTE LYMPHOCYTE / ABSOLUTE MONOCYTE / ABSOLUTE SEGMENTED NEUTROPHIL / BASOPHIL / EOSINOPHIL / ERYTHROCYTE COUNT / HEMATOCRIT / HEMOGLOBIN / LEUKOCYTE COUNT / LYMPHOCYTE / MEAN CORPUSCULAR HEMOGLOBIN / MEAN CORPUSCULAR HEMOGLOBIN CONCENTRATION / MEAN CORPUSCULAR VOLUME / MONOCYTE / NEUTROPHIL / NUCLEATED RED BLOOD CELLS / PLATELET COUNT: tissue Blood; for ALANINE AMINOTRANSFERASE / ALBUMIN / ALKALINE PHOSPHATASE / ASPARTATE AMINOTRANSFERASE / BLOOD UREA NITROGEN / CARBON DIOXIDE / CHLORIDE / CHOLESTEROL / CREATINE PHOSPHOKINASE / CREATININE / GLUCOSE / LACTATE DEHYDROGENASE / LIPASE / PHOSPHORUS / POTASSIUM / SODIUM / TOTAL BILIRUBIN / TOTAL PROTEIN / URIC ACID: tissue Plasma
[1] = 3000 mg/kg, […], dose level Low, time 7 day
[2] = 6000 mg/kg, 72 h, dose level High, time 3 day
[3] = 6000 mg/kg, […], dose level High, time 7 day

Compound: CCO [ALCOHOL]
- ABSOLUTE BASOPHIL [1]: 0 CELLS/uL
- ABSOLUTE EOSINOPHIL [1]: 0 CELLS/uL
- ABSOLUTE LYMPHOCYTE [1]: 9669 CELLS/uL
- ABSOLUTE MONOCYTE [1]: 317.33 CELLS/uL
- ABSOLUTE SEGMENTED NEUTROPHIL [1]: 1063.67 CELLS/uL
- BASOPHIL [1]: 0%
- EOSINOPHIL [1]: 0%
- ERYTHROCYTE COUNT [1]: 5.39 x10E6/uL
- HEMATOCRIT [1]: 34.88%
- HEMOGLOBIN [1]: 13.85 G/DL
- LEUKOCYTE COUNT [1]: 11.05 x10E3/uL
- LYMPHOCYTE [1]: 87%
- MEAN CORPUSCULAR HEMOGLOBIN [1]: 25.73 pg
- MEAN CORPUSCULAR HEMOGLOBIN CONCENTRATION [1]: 39.75 G/DL
- MEAN CORPUSCULAR VOLUME [1]: 64.77 fL
- MONOCYTE [1]: 2.83%
- NEUTROPHIL [1]: 10.17%
- NUCLEATED RED BLOOD CELLS [1]: 0 /100WBC
- PLATELET COUNT [1]: 1110 x10E3/uL
- ALANINE AMINOTRANSFERASE [1]: 51.67 u/L
- ALBUMIN [1]: 4.5 G/DL
- ALKALINE PHOSPHATASE [1]: 281.33 u/L
- ASPARTATE AMINOTRANSFERASE [1]: 82.67 u/L
- BLOOD UREA NITROGEN [1]: 15 mg/dL
- CARBON DIOXIDE [1]: 31 mmol/L
- CHLORIDE [1]: 98.33 MEQ/L
- CHOLESTEROL [1]: 69.83 mg/dL
- CREATINE PHOSPHOKINASE [1]: 250 u/L
- CREATININE [1]: 0.19 mg/dL
- GLUCOSE [1]: 135.67 mg/dL
- LACTATE DEHYDROGENASE [1]: 123.5 u/L
- LIPASE [1]: 10.17 u/L
- PHOSPHORUS [1]: 10.85 mg/dL
- POTASSIUM [1]: 5.95 MEQ/L
- SODIUM [1]: 143.15 MEQ/L
- TOTAL BILIRUBIN [1]: 0.22 mg/dL
- TOTAL PROTEIN [1]: 5.93 G/DL
- URIC ACID [1]: 0.68 mg/dL
- ABSOLUTE BASOPHIL [2]: 0 CELLS/uL
- ABSOLUTE EOSINOPHIL [2]: 0 CELLS/uL
- ABSOLUTE LYMPHOCYTE [2]: 11300.5 CELLS/uL
- ABSOLUTE MONOCYTE [2]: 91.33 CELLS/uL
- ABSOLUTE SEGMENTED NEUTROPHIL [2]: 1124.83 CELLS/uL
- BASOPHIL [2]: 0%
- EOSINOPHIL [2]: 0%
- ERYTHROCYTE COUNT [2]: 5.6 x10E6/uL
- HEMATOCRIT [2]: 35.9%
- HEMOGLOBIN [2]: 13 G/DL
- LEUKOCYTE COUNT [2]: 12.52 x10E3/uL
- LYMPHOCYTE [2]: 90.17%
- MEAN CORPUSCULAR HEMOGLOBIN [2]: 23.25 pg
- MEAN CORPUSCULAR HEMOGLOBIN CONCENTRATION [2]: 36.23 G/DL
- MEAN CORPUSCULAR VOLUME [2]: 64.17 fL
- MONOCYTE [2]: 0.67%
- NEUTROPHIL [2]: 9.17%
- NUCLEATED RED BLOOD CELLS [2]: 0 /100WBC
- PLATELET COUNT [2]: 1089.17 x10E3/uL
- ALANINE AMINOTRANSFERASE [2]: 60.5 u/L
- ALBUMIN [2]: 4.18 G/DL
- ALKALINE PHOSPHATASE [2]: 281 u/L
- ASPARTATE AMINOTRANSFERASE [2]: 86.33 u/L
- BLOOD UREA NITROGEN [2]: 12.33 mg/dL
- CARBON DIOXIDE [2]: 28.33 mmol/L
- CHLORIDE [2]: 101.33 MEQ/L
- CHOLESTEROL [2]: 80.33 mg/dL
- CREATINE PHOSPHOKINASE [2]: 216.67 u/L
- CREATININE [2]: 0.46 mg/dL
- GLUCOSE [2]: 142.83 mg/dL
- LACTATE DEHYDROGENASE [2]: 151.83 u/L
- LIPASE [2]: 9.83 u/L
- PHOSPHORUS [2]: 11.08 mg/dL
- POTASSIUM [2]: 5.96 MEQ/L
- SODIUM [2]: 146.62 MEQ/L
- TOTAL BILIRUBIN [2]: 0.17 mg/dL
- TOTAL PROTEIN [2]: 6.02 G/DL
- URIC ACID [2]: 0.97 mg/dL
- ABSOLUTE BASOPHIL [3]: 0 CELLS/uL
- ABSOLUTE EOSINOPHIL [3]: 38 CELLS/uL
- ABSOLUTE LYMPHOCYTE [3]: 9373.67 CELLS/uL
- ABSOLUTE MONOCYTE [3]: 256.5 CELLS/uL
- ABSOLUTE SEGMENTED NEUTROPHIL [3]: 1531.83 CELLS/uL
- BASOPHIL [3]: 0%
- EOSINOPHIL [3]: 0.33%
- ERYTHROCYTE COUNT [3]: 5.4 x10E6/uL
- HEMATOCRIT [3]: 33.48%
- HEMOGLOBIN [3]: 13.42 G/DL
- LEUKOCYTE COUNT [3]: 11.2 x10E3/uL
- LYMPHOCYTE [3]: 84.5%
- MEAN CORPUSCULAR HEMOGLOBIN [3]: 24.92 pg
- MEAN CORPUSCULAR HEMOGLOBIN CONCENTRATION [3]: 40.07 G/DL
- MEAN CORPUSCULAR VOLUME [3]: 62.18 fL
- MONOCYTE [3]: 2.33%
- NEUTROPHIL [3]: 12.83%
- NUCLEATED RED BLOOD CELLS [3]: 0 /100WBC
- PLATELET COUNT [3]: 1292.83 x10E3/uL
- ALANINE AMINOTRANSFERASE [3]: 65.5 u/L
- ALBUMIN [3]: 4.38 G/DL
- ALKALINE PHOSPHATASE [3]: 202.33 u/L
- ASPARTATE AMINOTRANSFERASE [3]: 86.17 u/L
- BLOOD UREA NITROGEN [3]: 13 mg/dL
- CARBON DIOXIDE [3]: 29.33 mmol/L
- CHLORIDE [3]: 100.17 MEQ/L
- CHOLESTEROL [3]: 67.17 mg/dL
- CREATINE PHOSPHOKINASE [3]: 206 u/L
- CREATININE [3]: 0.19 mg/dL
- GLUCOSE [3]: 138.83 mg/dL
- LACTATE DEHYDROGENASE [3]: 109 u/L
- LIPASE [3]: 10 u/L
- PHOSPHORUS [3]: 10.48 mg/dL
- POTASSIUM [3]: 5.88 MEQ/L
- SODIUM [3]: 144.13 MEQ/L
- TOTAL BILIRUBIN [3]: 0.18 mg/dL
- TOTAL PROTEIN [3]: 5.83 G/DL
- URIC ACID [3]: 0.88 mg/dL
